Assays:
[1] = molecular target: T1, hIre1α (Homo sapiens, UniProt O75460); experiment: cell free Ire1α kinase activity (autophosphorylation, 32P-γATP); type: biochemical; settings: 0-100 μM, 32P-γATP autophosphorylation
T1 construct: hIre1α protein containing both Ire1 cytoplasmic kinase and RNase domains; made in house
Procedure: FIG. 1F is a graph and gel that show the effect of STF-083010 on cell free Ire1α kinase activity, Upper: hIre1α was incubated with 32P-γATP and increasing concentrations (0-100 μM) of STF-083010. Ire1α autophosphorylation was analyzed by SDS-PAGE, followed by autoradiography to determine the amount of 32P incorporation (32P-hIRE). […] Error bars represent s.e.m. of 3 independent experiments.
Chemical library screening. The screen was performed in the Stanford High-Throughput Bioscience Center (HTBC). hIre1α protein containing both Ire1 cytoplasmic kinase and RNase domains was expressed and purified from baculovirus as described (Niwa M, Sidrauski C, Kaufman R J, Walter P. A role for presenilin-1 in nuclear accumulation of Ire1 fragments and induction of the mammalian unfolded protein response. Cell. 1999; 99:691-702). Autophosphorylation activity was determined with the addition of ^32P-γATP. Endonuclease activity was determined with the addition of radio-labeled HAC1 508 nt RNA substrate synthesized in vitro using α^32P-UTP (Nock S, Gonzalez T, Sidrauski C, Niwa M, Walter P. Purification and activity assays of the catalytic domains of the kinase/endoribonuclease Ire1p from Saccharomyces cerevisiae. Methods Enzymol. 2001; 342:3-10). […] Kinase activity and RNAse cleavage products were quantitated by PAGE and ^32P-γATP or ^32P-UTP autoradiography respectively.

[2] = test system: CD56 positive NK cells; experiment: ex vivo cytotoxicity in peripheral blood NK cells (7-aminoactinomycin D); type: cell-based, human; settings: average of UPN 9-15
Procedure: (§1) FIG. 2E is a line graph showing that STF-083010 is preferentially cytotoxic against human MM cells. MM cells were obtained by CD138+ selection from bone marrow samples from MM patients; lymphocytes were obtained by Ficoll density-gradient centrifugation of peripheral blood samples from control patients, followed by staining with anti CD3, anti CD19 and anti CD56 monoclonal antibodies to differentiate between T-, B- and NK cells. Cells were cultured with the indicated concentrations of STF-083010 for 24 h and cell viability was measured by flow cytometric analysis of Annexin V/Propidium Iodide (MM) or 7-aminoactinomycin D (peripheral blood lymphocytes) stained samples.
(§2) In order to determine anti-myeloma activity of STF-083010, first we treated a panel of MM cell lines with increasing concentrations of the compound in vitro and measured viability by trypan blue exclusion (FIG. 2C). […] Next, we treated RPMI8226 human MM cells grown as tumor xenografts in NSG mice. […] Additionally, we treated fresh CD138+ cells isolated from MM patients and compared the ex vivo toxicity to that of cells from 7 control patients (FIG. 2E, Tables 1,2).
(§3) Human specimen isolation and assays. Bone marrow aspirates were obtained from MM patients after obtaining informed consent according to institutional guidelines. […]

[3] = test system: RPMI8226 MM cells; experiment: RPMI8226 subcutaneous tumor xenografts in NOD/SCID/IL2Rγ null mice; type: in vivo; settings: intraperitoneal, 30 mg/kg once weekly for 2 weeks (d1, d8)
Procedure: FIG. 2D is a line graph showing the antitumor activity of STF-083010 in vivo. RPMI8226 MM cells were established as subcutaneous tumor xenografts in NOD/SCID/IL2Rγ null mice. When tumors reached an average volume of 150 mm3, 2 groups of 5 mice each were treated with 30 mg/kg STF-083010 or drug vehicle once weekly for 2 weeks.
as §2

[4] = test system: XBP1-luciferase reporter; experiment: XBP1-luciferase bioluminescence in transgenic XBP1-luc mice; type: in vivo; settings: i.p.
Procedure: FIG. 2A is a bar graph showing that STF-083010 blocks bortezomib-induced XBP1 activity in vivo. Transgenic XBP1-luc mice were injected i.p. with drug vehicle (16% chremophor), 1 mg/kg bortezomib, or 1 mg/kg bortezomib and 60 mg/kg STF-083010 and bioluminescence was measured after 24 h. […] Error bars show s.e.m. of at least 4 animals.
FIG. 2B is a set of images of representative mice before and after treatment.
(§4) Human specimen isolation and assays. Bone marrow aspirates were obtained from MM patients after obtaining informed consent according to institutional guidelines. CD138+ plasma cells were selected by positive magnetic bead selection (StemCell Technologies, Vancouver, Canada) either after isolation of nucleated cells (patients 1-4) or directly (patients 5-8). Peripheral blood cells were obtained by Ficoll-Hypaque density centrifugation from separate control patients. Cell culture, reporter assays, RT-PCR, Western blotting, and bioluminescent imaging.

[5] = test system: RPMI8226, MM.1S and MM.1R MM cells; experiment: in vitro cytotoxicity in MM cell lines, trypan blue exclusion; type: cell-based, human; settings: 0, 30 or 60 μM, viable cell number measured daily
Procedure: FIG. 2C is a set of line graphs showing in vitro cytotoxicity of STF-083010. RPMI8226, MM.1S and MM.1R MM cells that were treated with 0, 30 or 60 μM of STF-083010 and viable cell number was measured daily by the trypan blue exclusion method.
as §2

[6] = test system: CD138+ multiple myeloma cells; experiment: ex vivo cytotoxicity in CD138+ cells from MM patients (Annexin V/Propidium Iodide); type: cell-based, human
Excerpt: MM cells were obtained by CD138+ selection from bone marrow samples from MM patients; lymphocytes were obtained by Ficoll density-gradient centrifugation of peripheral blood samples from control patients, followed by staining with anti CD3, anti CD19 and anti CD56 monoclonal antibodies to differentiate between T-, B- and NK cells.
Next, we treated RPMI8226 human MM cells grown as tumor xenografts in NSG mice. […] Additionally, we treated fresh CD138+ cells isolated from MM patients and compared the ex vivo toxicity to that of cells from 7 control patients (FIG. 2E, Tables 1,2).
as §4

[7] = test system: CD19 positive B cells; experiment: ex vivo cytotoxicity in peripheral blood B cells (7-aminoactinomycin D); type: cell-based, human; settings: average of UPN 9-15
Procedure: as §1, §2, §3

[8] = molecular target: T2, Ire1α (Homo sapiens, UniProt O75460); experiment: Ire1α auto-phosphorylation by immunoblot in RPMI8226 cells; type: cell-based; settings: 300 μM Th and 60 μM STF-083010
T2 construct: RPMI8226 cells were treated with 300 μM Th and 60 μM STF-083010; endogenous in cells; host or cells: RPMI8226 human multiple myeloma cells
Procedure: FIG. 1D is a set of gel electrophoresis images in which RPMI8226 cells were treated with 300 μM Th and 60 μM STF-083010 for the indicated times and the levels of phosphorylated and total Ire1α were detected using specific antibodies.

[9] = histology (H&E) of normal mouse tissues after treatment; type: in vivo; settings: 60 mg/kg×1 and 30 mg/kg×2
Procedure: FIG. 3 is a set of images of the H&E stained sections of normal mouse tissues and RPMI8226 xenograft tumors treated with drug vehicle (16% chremophor in saline) or 30 mg/kg STF-083010 weekly for two weeks.

[10] = test system: sXBP1 protein; experiment: sXBP1 protein production by immunoblotting in MM cell lines; type: cell-based, human; settings: 300 μM Th and 60 μM STF-083010
Procedure: FIG. 1C is set of a gel electrophoresis images showing STF-083010 inhibiting the production of sXBP1 protein but not the auto-phosphorylation of Ire1α. The left panel indicates MM cell lines that were treated for the indicated times with 300 μM Th and 60 μM STF-083010 and sXBP1 protein was detected by immunoblotting.
(§5) To confirm the molecular target, we analyzed the effect of STF-083010 on endogenous XBP1 mRNA splicing levels in control and ER-stressed RPMI8226 human MM cells (FIG. 1B). […] To establish that this effect was due to a direct interaction between STF-083010 and Ire1α, we analyzed Ire1α enzymatic activity in a cell free system. STF-083010 blocked Ire1α's endonuclease activity (FIG. 1E), without affecting its kinase activity (FIG. 1F).
as §4

[11] = test system: XBP1 mRNA splicing; experiment: endogenous XBP1 mRNA splicing by RT-PCR in ER-stressed RPMI8226 cells; type: cell-based, human
Procedure: FIG. 1B is a gel electrophoresis image showing STF-083010 inhibiting endogenous XBP1 mRNA splicing. RPMI8226 cells were treated with 300 μM thapsigargin (Th), 60 μM STF-083010 or both for indicated amount of time and the relative XBP1 splicing was determined by RT-PCR. Solid arrow indicates the unspliced and broken arrow indicates the spliced form.
as §5, §4

[12] = molecular target: T1, hIre1α; experiment: cell free Ire1α RNase (endonuclease) activity, HAC1 mRNA cleavage; type: biochemical; settings: hIre1 with 32P HAC1 508 nt transcript, 30 min, 1-100 μM; read-out: half-maximal inhibition of HAC1 mRNA processing
Procedure: FIG. 1E is a gel electrophoresis image and a line graph showing the STF-083010 effect on cell free Ire1α RNase (endonuclease) activity. […] HAC1 mRNA cleavage reaction was analyzed by separation of products on denaturing polyacrylamide gels, followed by autoradiography. The line graph is the quantitation of HAC1 mRNA processing showing half-maximal inhibition at approximately 25 μM. Error bars represent s.e.m. of 3 independent experiments.
Chemical library screening. […] Autophosphorylation activity was determined with the addition of ^32P-γATP. Endonuclease activity was determined with the addition of radio-labeled HAC1 508 nt RNA substrate synthesized in vitro using α^32P-UTP (Nock S, Gonzalez T, Sidrauski C, Niwa M, Walter P. Purification and activity assays of the catalytic domains of the kinase/endoribonuclease Ire1p from Saccharomyces cerevisiae. Methods Enzymol. 2001; 342:3-10). […] Kinase activity and RNAse cleavage products were quantitated by PAGE and ^32P-γATP or ^32P-UTP autoradiography respectively.

[13] = test system: CD3 positive T cells; experiment: ex vivo cytotoxicity in peripheral blood T cells (7-aminoactinomycin D); type: cell-based, human; settings: average of UPN 9-15
Procedure: as §1, §2, §3

T1 sequence (O75460 465-977 limits assumed): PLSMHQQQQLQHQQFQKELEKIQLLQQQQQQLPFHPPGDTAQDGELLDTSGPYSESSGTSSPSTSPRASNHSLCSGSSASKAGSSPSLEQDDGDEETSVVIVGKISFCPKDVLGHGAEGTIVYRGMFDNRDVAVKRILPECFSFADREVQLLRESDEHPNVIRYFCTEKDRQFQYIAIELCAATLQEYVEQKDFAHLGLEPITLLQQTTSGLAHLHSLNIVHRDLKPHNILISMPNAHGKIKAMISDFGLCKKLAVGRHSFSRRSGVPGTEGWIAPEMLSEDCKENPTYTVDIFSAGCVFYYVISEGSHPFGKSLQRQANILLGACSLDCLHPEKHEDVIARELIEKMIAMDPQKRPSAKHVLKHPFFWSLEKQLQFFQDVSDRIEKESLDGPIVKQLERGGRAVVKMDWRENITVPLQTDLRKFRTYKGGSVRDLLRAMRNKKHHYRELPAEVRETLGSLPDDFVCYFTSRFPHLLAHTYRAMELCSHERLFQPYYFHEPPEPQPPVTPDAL
T2 sequence (O75460 19-977): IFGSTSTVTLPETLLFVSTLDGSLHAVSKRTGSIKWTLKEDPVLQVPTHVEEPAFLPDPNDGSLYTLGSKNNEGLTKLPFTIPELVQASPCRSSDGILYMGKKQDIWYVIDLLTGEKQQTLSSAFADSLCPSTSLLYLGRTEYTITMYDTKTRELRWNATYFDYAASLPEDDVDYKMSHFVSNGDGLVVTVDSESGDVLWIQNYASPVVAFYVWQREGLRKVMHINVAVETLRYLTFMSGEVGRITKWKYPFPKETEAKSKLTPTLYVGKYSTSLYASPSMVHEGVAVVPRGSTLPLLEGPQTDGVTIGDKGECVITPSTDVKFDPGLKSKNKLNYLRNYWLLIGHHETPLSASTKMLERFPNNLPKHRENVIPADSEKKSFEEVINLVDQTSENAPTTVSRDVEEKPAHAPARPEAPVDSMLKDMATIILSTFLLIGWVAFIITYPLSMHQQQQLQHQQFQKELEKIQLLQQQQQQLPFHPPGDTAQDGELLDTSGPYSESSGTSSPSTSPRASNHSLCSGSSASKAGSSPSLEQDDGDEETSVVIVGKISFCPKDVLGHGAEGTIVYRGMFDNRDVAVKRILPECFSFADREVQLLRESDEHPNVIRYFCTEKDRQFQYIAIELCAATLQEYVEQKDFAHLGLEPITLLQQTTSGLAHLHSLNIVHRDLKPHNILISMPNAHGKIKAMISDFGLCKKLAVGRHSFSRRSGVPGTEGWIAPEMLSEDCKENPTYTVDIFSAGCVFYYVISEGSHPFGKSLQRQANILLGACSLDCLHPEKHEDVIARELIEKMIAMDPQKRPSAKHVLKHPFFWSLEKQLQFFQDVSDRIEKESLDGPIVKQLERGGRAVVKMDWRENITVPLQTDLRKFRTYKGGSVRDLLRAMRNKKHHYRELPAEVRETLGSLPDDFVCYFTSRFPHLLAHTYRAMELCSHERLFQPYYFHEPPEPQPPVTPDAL

## O=S(=O)(/N=C/c1c(O)ccc2ccccc12)c1cccs1 [STF-083010, (E)-N-((2-hydroxynaphthalen-1-yl)methylene)thiophene-2-sulfonamide]
[1]
  Ire1α kinase activity during co-incubation: no significant change
[2]
  LD50 (24 h) CD56 positive, AVERAGE: 71.3 µM
[3]
  growth of tumor xenografts: significantly inhibited
[4]; 1 mg/kg bortezomib and 60 mg/kg STF-083010, 24 h
  XBP1-luciferase bioluminescent signal when injected with bortezomib: no increase in bioluminescent signal
[5]
  viability of MM cell lines: cytostatic and cytotoxic activity in a dose- and time-dependent manner
[6]; average of UPN 1-8
  LD50 24 h in multiple myeloma cells, AVERAGE: 27.8 µM
[6]; ex vivo, 24 h
  cytotoxicity to CD138+ cells compared to B (CD19+), T (CD3+), and NK (CD56+) cells: selectively cytotoxic
[7]
  LD50 (24 h) CD19 positive, AVERAGE: 73.1 µM
[8]
  Ire1α kinase activity, immunoblot of autophosphorylated Ire1α: did not inhibit
[9]
  histologic effects after treatment: did not find any histologic effects
[10]
  production of active sXBP1 protein: inhibited production of active sXBP1 protein
[11]; RPMI8226 cells, 300 μM thapsigargin (Th), 60 μM STF-083010
  XBP1 mRNA splicing induced by thapsigargin: almost completely blocked
[11]; tunicamycin treatment, glucose deprivation or severe hypoxia (data not shown)
  XBP1 splicing activated by other types of ER stress: inhibited XBP1 splicing
[12]
  IC50: ~25 µM
[13]
  LD50 (24 h) CD3 positive, AVERAGE: 136.6 µM

## CC(C)C[C@H](NC(=O)[C@H](Cc1ccccc1)NC(=O)c1cnccn1)B(O)O [bortezomib, reference compound]
[4]; 1 mg/kg bortezomib, 24 h
  XBP1-luciferase bioluminescent activity after bortezomib alone: commensurate increase

## C/C=C(/C)C(=O)O[C@H]1C(C)=C2[C@H]([C@@H]1OC(=O)CCCCCCC)[C@@](C)(OC(C)=O)C[C@H](OC(=O)CCC)[C@@]1(O)[C@H]2OC(=O)[C@@]1(C)O [thapsigargin, reference compound]
[11]; RPMI8226 cells, 300 μM thapsigargin
  XBP1 splicing on incubation with thapsigargin alone: resulted in XBP1 splicing
